Experiment [1] relates to mice. Description: marble burying. The following applies: for reduction in marble burying, statistical significance: amylin at 10 mg/kg, buspirone at 20 mg/kg, P<0.05; for number of marbles buried in 30 minutes: injected 15-30 minutes prior to test, rat amylin 0.1, 1.0 or 10 mg/kg, buspirone 20/kg, FIG. 3. Format: in vivo, mouse. The procedure:
(§1) These specific behavioral tests are known to be sensitive to anxiolytic, antidepressant, or antipsychotic drugs.
Marble burying is used as a model for both anxiety and obsessive-compulsive disorder. See, for example, Chaki et al. (2003) J. Pharmacol. Exp. Ther. 304:818-826. Anxiolytics suppress marble burying activity. […] Mice were then placed individually in clean cages containing 5-cm of hard wood bedding and 20 marbles spaced evenly in rows of five. The number of marbles buried in 30 minutes was recorded. […] Buspirone is a partial 5-HT1A agonist and an known anxiolytic agent.

In a further experiment the test system is test animals. Kind of experiment: amylin activity in vivo in treated test animals (hyperlactemia followed by hyperglycemia). The following applies: e.g., provoking marked hyperlactemia followed by hyperglycemia.
In experiment [2] the test system is mice. Description: prepulse inhibition (PPI) test. The class given is in vivo, mouse. The following applies: amylin at 10 mg/kg; haloperidol 1 mg/kg; all prepulse levels tested (74, 78, and 82 dB); 120 dB stimulus; FIG. 5.
Excerpt: as §1
The prepulse inhibition (PPI) test measures the reflex response to externally applied auditory stimulation (acoustic startle response) and is related to the deficiency in sensory-motor gating capacity seen in schizophrenia. The acoustic startle reflex is a very basic response to strong exteroceptive stimuli and is widely used to assess sensorimotor reactivity in animals and humans. A weak auditory stimulus (prepulse, 74-82 dB) given prior to the strong acoustic stimulus (120 dB) blunts the startle response. This blunting of the startle response is referred to as prepulse inhibition. […] Antipsychotics increase the ability of the prepulse stimulus to blunt the startle response to the strong stimulus. Some psychotomimetic agents, such as phencyclidine (PCP) and ketamine, can actually reduce the percent prepulse inhibition and stimulate a psychotic-like state in animals, which can be antagonized by antipsychotic agents.
The mice were placed into an animal holder and the holder placed onto a transducer platform in an acoustic chamber. A weak auditory stimulus (prepulse) of 74, 78 and 82 dB was given prior to the strong acoustic stimulus (120 dB). The amount of the animal's “reaction” to the strong stimulus was recorded. […]

Experiment [3] deals with Adult, male Sprague-Dawley rats. Kind of experiment: weight gain induced by clozapine. Format: in vivo. The following applies: rat amylin 10 μg/kg/day co-administered with clozapine […], osmotic pump, 4 weeks; FIG. 7B.
The subject of experiment [4] is Male, Sprague-Dawley rats. Kind of experiment: sugar withdrawal paradigm with restraint stress (stress-induced feeding). The class given is in vivo. Particulars: rat amylin 300 μg/kg/d by osmotic pump. The procedure:
Male, Sprague-Dawley® rats were submitted to a sugar withdrawal paradigm and observed for effects of stress on sugar intake. […] All rats were provided with ad libitum access to standard chow, water, and a 30% sucrose drink. Subsequently, the sucrose drink was removed and half of the rats were subjected, daily, to 3 h of mild restraint stress for 3 successive days. After 3 days, sucrose was provided and its daily average consumption was measured over 4 days. Chow intake was also measured over the 3 days of withdrawal and stress and over the following 4 days when sucrose was re-introduced. No restraint was applied during the 4 days of sucrose re-introduction. Results of this assay are shown in FIG. 1 where * is P<0.05 by ANOVA and Fisher LSD post-hoc analyses.

The subject of experiment [5] is mice. Kind of experiment: stress-induced hyperthermia (SIH) assay. Format: in vivo, mouse.
Excerpt: as §1
Body temperature and emotional state are closely related in humans, and stress-induced hyperthermia (SIH) in mice is considered to have predictive validity for certain human anxiety/stress disorders. The SIH assay assesses the effect of anxiolytics or test agents on stress-induced hyperthermia and measures the intrinsic effects of these drugs on core body temperature of the animal. See, for example, Zethof et al. (1994) Physiol. Behav. […] Anxiolytics blunt the increase in body temperature, or hyperthermic response, following stress exposure. […] Mice were subjected to two sequential rectal temperature measurements ten minutes apart. The stress from the first measurement induces hyperthermia which was measured by the second temperature measurement. The difference between the two temperatures (ΔT) was the stress-induced hyperthermia.

In experiment [6] the test system is mice. Kind of experiment: phencyclidine (PCP)-induced locomotion test. Format: in vivo, mouse.
Excerpt: as §1
The PCP-induced locomotion test is used with the open field activity chambers and measures locomotion, rearing, and stereotypic activity under amphetamine/PCP-induced conditions. The test has predictive validity for some antipsychotic drugs that normalize the hyperactivity and stereotypic behavior seen with amphetamine and PCP. See, for example, Williams et al. (2006) Prog. Neuropsychopharmacol. Biol. Psychiatry 30:239-243. […] The animals were then placed in the center of an open field and activity was recorded for 60 minutes. […] CZP is an atypical, second generation antipsychotic drug has a mixed receptor profile, including the dopamine receptor.

Experiment [7] deals with mice. Description: forced swim test (FST). Format: in vivo, mouse. Particulars: delivered continuously for two weeks by subcutaneous osmotic pumps; 5 minute trial session; FIG. 4.
Excerpt: as §1
The forced swim test (FST) is a commonly used paradigm to evaluate antidepressant activity of drugs. This test is based on measurement of the animal's floating time in a tank filled with water. When rats or mice are forced to swim in a deep cylinder with tepid water they become nearly immobile and cease trying to escape. This characteristic immobile posture is thought to reflect a depressive-like state and is readily influenced by a wide variety of antidepressants. See, for example, Hédou et al. (2001) Pharmacol., Biochem. Behav. […] Antidepressants decrease the immobility time in the FST. Rat amylin or vehicle was delivered continuously for two weeks to mice by subcutaneously implanted osmotic pumps prior to the FST. On day one, the mice were placed in the water tank for a 15 minute pre-swim session. On day two, the mice were placed back into the water tank for assessment of climbing, swimming, and immobility over a 5 minute trial session.

Consider 7 molecules from patent publication US7671023B2 (Amylin Pharmaceuticals, Inc., priority 2005, dated 2010).

In the case of `O=C1CC2(CCCC2)CC(=O)N1CCCCN1CCN(c2ncccn2)CC1` [buspirone, reference compound], in the experiment with mice [1], the “reduction in marble burying, statistical significance” value is reported as “statistically significant” and the “number of marbles buried in 30 minutes” value is recorded as “reduced the number of marbles buried”.
As for `CC[C@H](C)[C@H](NC(=O)[C@@H]1CCCN1C(=O)CNC(=O)[C@H](Cc1ccccc1)NC(=O)[C@H](CC(N)=O)NC(=O)[C@H](CC(N)=O)NC(=O)[C@H](CO)NC(=O)[C@H](CO)NC(=O)[C@H](Cc1c[nH]cn1)NC(=O)[C@@H](NC(=O)[C@H](CC(C)C)NC(=O)[C@H](Cc1ccccc1)NC(=O)[C@H](CC(N)=O)NC(=O)[C@H](C)NC(=O)[C@H](CC(C)C)NC(=O)[C@H](CCCNC(=N)N)NC(=O)[C@H](CCC(N)=O)NC(=O)[C@@H](NC(=O)[C@H](C)NC(=O)[C@@H]1CSSC[C@H](NC(=O)[C@@H](N)CCCCN)C(=O)N[C@@H](CC(N)=O)C(=O)N[C@@H]([C@@H](C)O)C(=O)N[C@@H](C)C(=O)N[C@@H]([C@@H](C)O)C(=O)N1)[C@@H](C)O)C(C)C)C(=O)N[C@@H](CC(C)C)C(=O)N1CCC[C@H]1C(=O)N1CCC[C@H]1C(=O)N[C@H](C(=O)N[C@@H](CC(N)=O)C(=O)N[C@H](C(=O)NCC(=O)N[C@@H](CO)C(=O)N[C@@H](CC(N)=O)C(=O)N[C@H](C(=O)N[C@@H](Cc1ccc(O)cc1)C(N)=O)[C@@H](C)O)C(C)C)[C@@H](C)O` [^25,28,29Pro-h-amylin, reference compound], in the experiment with test animals, the “amylin activity in vivo” value is “show amylin activity in vivo”.
As to “des-^1Lys-h-amylin (CNTATCATQRLANFLVHSSNNFGAILSSTNVGSNTY)”, the “amylin activity in vivo” value with test animals is on record as “show amylin activity in vivo”.
Regarding `O=C(CCCN1CCC(O)(c2ccc(Cl)cc2)CC1)c1ccc(F)cc1` [halperidol, haloperidol, reference compound], in the experiment with mice [2], the “percent of prepulse inhibition” value is recorded as “significantly increased the percent of prepulse inhibition”.
Take “^28Pro-h-amylin (KCNTATCATQRLANFLVHSSNNFGAILPSTNVGSNTY)”: the “amylin activity in vivo” value in the experiment on test animals is reported as “show amylin activity in vivo”.
In the case of “KCNTATCATQRLANFLVRSSNNLGPVLPPTNVGSNTY (listed as Rattus sp.) [rat amylin, 37-amino acid polypeptide hormone; rat species variant of amylin]”, the “weight gain observed with clozapine alone” value in experiment [3] is reported as “prevented the weight gain”. Further, the “average sucrose to chow consumption ratio (as % of baseline)” value in experiment [4] (3 h mild restraint stress daily for 3 days, sucrose intake over following 4 days, FIG. 1A) is “prevents the increase in the average sucrose to chow consumption ratio”. Besides, the “chow consumption (stress-induced decrease)” value in experiment [4] (restraint stress, FIG. 1B) is listed as “protects against this behavioral response to stress”. Also, the “SIH response (ΔT)” value in the experiment on mice [5] (acute, 60 minutes before the assay, rat amylin 0.1, 1.0 or 10 mg/kg, chlordiazepoxide 10 mg/kg, FIG. 2) is given as “blunted the SIH response”. Also, in the experiment on mice [5] (subcutaneously implanted pumps, amylin 300 μg/kg/d, CDP 10 mg/kg/d, at both 1 week and 4 weeks of administration), the “SIH response (ΔT), chronic infusion” value is on record as “significantly blunted the SIH response”. Moreover, in the experiment on mice [6] (agent alone, without PCP), the baseline activity entry is given as “did not affect baseline activity”. Moreover, the “rearing activity and PCP-induced rearing activity” value in the experiment on mice [6] (open field, with and without 5 mg/kg PCP) was “reduced rearing activity and PCP-induced rearing activity”. Further, the total distance traveled entry in the experiment on mice [6] (rat amylin 0.1, 1.0 or 10 mg/kg or 3 mg/kg clozapine 15-30 minutes prior to 5 mg/kg PCP, total, central, and peripheral, 60 minutes, FIG. 6) is reported as “significantly reduced the total distance traveled”. In addition, the “percent of prepulse inhibition” value in the experiment with mice [2] is listed as “significantly increased the percent of prepulse inhibition”. The “time spent in the immobile state” value with mice [7] is given as “significantly reduced the time spent in the immobile state”. In the experiment with mice [1], the “reduction in marble burying, statistical significance” value is on record as “statistically significant” and the “number of marbles buried in 30 minutes” value was “reduced the number of marbles buried”.
In the case of “des-^1Lys^18Arg^25,28Pro-h-amylin (CNTATCATQRLANFLVRSSNNFGPILPSTNVGSNTY)”, the “amylin activity in vivo” value in the experiment on test animals is on record as “show amylin activity in vivo”.
